Source: the supplement of paper PMC7840683
± gives the standard deviation of the averaged measurements.

Tested on: HepaRG
Assay: LDH release cytotoxicity, % of total lysis control; higher = more cytotoxic
Conditions: 48 h
Method in brief: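 Single-lot HepaRG cells on collagen I-coated 96-well plates were exposed for 48 h in duplicate, in serum-free induction medium with 0.5% DMSO, to eight-point half-log series (test chemicals top 100 µM). Total lysis wells received 0.1% Triton X, and LDH leakage into 50 µL spent medium was read as resorufin fluorescence (CytoTox-ONE, Tecan Safire). Percent cytotoxicity was normalized to on-plate vehicle and total lysis controls and averaged over the duplicates.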

Compound	LDH release cytotoxicity (0.03162 µM) [%]	LDH release cytotoxicity (0.1 µM) [%]	LDH release cytotoxicity (0.3162278 µM) [%]	LDH release cytotoxicity (1 µM) [%]	LDH release cytotoxicity (3.16228 µM) [%]	LDH release cytotoxicity (10 µM) [%]	LDH release cytotoxicity (31.6228 µM) [%]	LDH release cytotoxicity (100 µM) [%]	other results
CC(=O)NC1(c2cccc(F)c2)CCN(CCC2(c3ccc(Cl)c(Cl)c3)CN(c3ccccc3)C(=O)CO2)CC1 (stereo unspecified)	-0.672 ± 1.2	-0.672 ± 0.82	-0.643 ± 0.17	-0.552 ± 0.44	-0.767 ± 0.35	-0.38 ± 0.15	0.499 ± 0.37	3.41 ± 1.2	
CC(C)(O)c1ccc(CNC(=O)c2cccnc2Oc2ccc3nonc3c2)cc1	-0.138 ± 0.4	-0.0235 ± 1.2	-1.43 ± 0.089	-1.1 ± 0.77	-0.724 ± 0.6	-0.975 ± 0.052	-1.98 ± 0.84	-2.05 ± 0.18	
CC(C)(O)c1coc(S(=O)(=O)NC(=O)Nc2c3c(cc4c2CCC4)CCC3)c1	-0.467 ± 0.54	-0.342 ± 0.93	-0.339 ± 0.74	0.236 ± 0.21	0.788 ± 0.39	0.179 ± 0.27	0.394 ± 0.043	1.465 ± 0.0083	
CC(C)(O)c1cnn2c(-c3ccc(F)c(-c4c(F)cccc4C#N)c3)cnc2n1	-0.882 ± 0.92	-1.19 ± 0.31	-1.7 ± 0.43	-1.5 ± 1.5	-1.51 ± 0.51	-1.39 ± 0.59	1.16 ± 0.29	8.979 ± 0.087	
CC(C)c1cccc(C(C)C)c1NC(=O)NS(=O)(=O)c1cc(C(C)(C)O)co1	0.635 ± 1.6	0.0343 ± 1.8	-0.878 ± 0.1	-1.57 ± 0.35	-1.32 ± 0.93	-1.29 ± 0.37	-1.24 ± 1.1	-0.335 ± 0.29	
CC(C)CCCCCCCOC(=O)c1ccccc1C(=O)OCCCCCCCC(C)C	-1.32 ± 0.57	-1.15 ± 0.18	-1.36 ± 0.46	-1.26 ± 0.61	-0.979 ± 0.44	-0.985 ± 0.6	-0.631 ± 0.57	0.487 ± 0.66	
CC(Cc1ccc(OCC(=O)O)cc1)NCC(O)c1csc(C(F)(F)F)n1 (stereo unspecified)	-1.76 ± 1.8	-2.85 ± 0.47	-1.56 ± 0.35	-1.12 ± 0.24	-1.22 ± 0.57	-0.599 ± 0.77	0.839 ± 2.3	0.309 ± 0.77	
Cc1nc(C)nc(N2CC(C)N(c3ccnc(C(C)O)n3)C(C)C2)n1 (stereo unspecified)									LDH release cytotoxicity (0.01581 µM): -1.17 ± 0.94%; LDH release cytotoxicity (0.05 µM): -0.963 ± 0.92%; LDH release cytotoxicity (0.1581139 µM): -1.7 ± 1%; LDH release cytotoxicity (0.5 µM): -1.95 ± 0.69%; LDH release cytotoxicity (1.5811388 µM): -0.835 ± 0.61%; LDH release cytotoxicity (5 µM): -1.01 ± 0.15%; LDH release cytotoxicity (15.8114 µM): -0.652 ± 0.091%; LDH release cytotoxicity (50 µM): 0.767 ± 0.63%
Cc1c(-c2cccnc2)c2ccccc2n1CCCCC(=O)O	-1.92 ± 0.15	-0.948 ± 0.94	-2.28 ± 1.1	-1.9 ± 1.2	-1.67 ± 3.2	-1.54 ± 2.1	-1.64 ± 0.83	4.56 ± 1.8	
Cc1[nH]nc2c1N=C(c1ccccc1Cl)c1cc([N+](=O)[O-])ccc1N2	-0.496 ± 0.19	-1.12 ± 0.7	-0.522 ± 0.35	2.66 ± 0.69	5.42 ± 0.45	4.54 ± 0.36	7.8 ± 1.1	40.5 ± 3.8	
Cc1cc(CCN2CCN(c3nsc4ccccc34)CC2)cc2c1NC(=O)CC2(C)C	-0.898 ± 0.3	-1.13 ± 1.4	-0.946 ± 0.34	-0.828 ± 0.57	-0.925 ± 0.38	-1.14 ± 0.57	-0.566 ± 0.6	-0.469 ± 0.49	
Cc1cc2c(cc1C(F)(F)F)N(C(=O)Nc1ccc(Oc3cccnc3C)nc1)CC2									LDH release cytotoxicity (0.0295673 µM): -7.63 ± 1.1%; LDH release cytotoxicity (0.0935 µM): -7.9 ± 0.54%; LDH release cytotoxicity (0.295673 µM): -7.01 ± 1.2%; LDH release cytotoxicity (0.935 µM): -8.47 ± 0.3%; LDH release cytotoxicity (2.95673 µM): -7.66 ± 0.24%; LDH release cytotoxicity (9.35 µM): -6.19 ± 1%; LDH release cytotoxicity (29.5673 µM): 68.937 ± 0.005%; LDH release cytotoxicity (93.5 µM): 72.5 ± 1.1%
Cc1ccc2oc(CN(Cc3ccccc3)C(=O)Nc3c(F)cc(F)cc3F)c(-c3ccc(Cl)cc3)c2c1									LDH release cytotoxicity (0.0279862 µM): -1.59 ± 1.2%; LDH release cytotoxicity (0.0885 µM): -1.08 ± 0.43%; LDH release cytotoxicity (0.279862 µM): -1.56 ± 0.098%; LDH release cytotoxicity (0.885 µM): -1.22 ± 0.62%; LDH release cytotoxicity (2.7986157 µM): -1.44 ± 0.12%; LDH release cytotoxicity (8.85 µM): -1.09 ± 0.59%; LDH release cytotoxicity (27.9862 µM): -0.962 ± 0.17%; LDH release cytotoxicity (88.5 µM): 2.85 ± 1.8%
Cc1nc(-c2ccccn2)ncc1C(=O)Nn1cc(C)c2cc(F)ccc21									LDH release cytotoxicity (0.0295673 µM): -0.89 ± 0.73%; LDH release cytotoxicity (0.0935 µM): -1.26 ± 0.34%; LDH release cytotoxicity (0.295673 µM): -0.0753 ± 0.68%; LDH release cytotoxicity (0.935 µM): -1.71 ± 0.6%; LDH release cytotoxicity (2.95673 µM): -2.8 ± 0.042%; LDH release cytotoxicity (9.35 µM): -2.48 ± 0.043%; LDH release cytotoxicity (29.5673 µM): -2.73 ± 0.47%; LDH release cytotoxicity (93.5 µM): -1.5 ± 0.84%
Cc1nc(-c2ccc3c(c2)CCN(CCC2CCC(NC(=O)C=Cc4ccc(F)cc4)CC2)CC3)no1 (stereo unspecified)	0.287 ± 2.3	-0.381 ± 0.15	-0.128 ± 1.3	-0.7917 ± 0.0065	-0.696 ± 0.47	-0.292 ± 0.19	-0.793 ± 0.21	-0.791 ± 0.54	
Cc1nccn1-c1ccc(Sc2cccc(C3(C(N)=O)CCOCC3)c2)cc1	-2.79 ± 0.052	-3.28 ± 1.4	-2.87 ± 1	-3.4 ± 0.34	-2.44 ± 0.034	7.65 ± 1.9	31.9 ± 0.88	42.52 ± 0.32	
CCC(=CC(N=O)C(N)=O)C(C)[N+](=O)[O-] (stereo unspecified)	-0.841 ± 0.13	-1.13 ± 0.46	-0.143 ± 1	-0.487 ± 0.72	-0.165 ± 0.14	0.0592 ± 0.5	0.411 ± 0.23	1.12 ± 0.8	
